Results published in ChEMBL document CHEMBL5331073, “Discovery of novel 7,7-dimethyl-6,7-dihydro-5H-pyrrolo[3,4-d]pyrimidines as ATR inhibitors based on structure-based drug design” (Eur J Med Chem, 2023).
One block for each compound: values may come before it.

What was measured:
MCF7 [1] = test: Antiproliferative activity against human MCF7 cells assessed as reduction in cell viability incubated for 3 days by MTT assay; format: functional, cell-based; conditions: MCF7, 72 h
MDA-MB-231 [2] = test: Antiproliferative activity against human MDA-MB-231 cells assessed as reduction in cell viability incubated for 3 days by MTT assay; format: functional, cell-based; conditions: MDA-MB-231, 72 h
[3] = target: T1, Serine/threonine-protein kinase ATR (Homo sapiens, UniProt Q13535); test: Inhibition of ATR (unknown origin) using peptide as substrate at 0.1 uM preincubated for 10 mins followed by substrate addition by microplate reader analysis
Target sequence in this assay (Q13535 whole entry, looked up): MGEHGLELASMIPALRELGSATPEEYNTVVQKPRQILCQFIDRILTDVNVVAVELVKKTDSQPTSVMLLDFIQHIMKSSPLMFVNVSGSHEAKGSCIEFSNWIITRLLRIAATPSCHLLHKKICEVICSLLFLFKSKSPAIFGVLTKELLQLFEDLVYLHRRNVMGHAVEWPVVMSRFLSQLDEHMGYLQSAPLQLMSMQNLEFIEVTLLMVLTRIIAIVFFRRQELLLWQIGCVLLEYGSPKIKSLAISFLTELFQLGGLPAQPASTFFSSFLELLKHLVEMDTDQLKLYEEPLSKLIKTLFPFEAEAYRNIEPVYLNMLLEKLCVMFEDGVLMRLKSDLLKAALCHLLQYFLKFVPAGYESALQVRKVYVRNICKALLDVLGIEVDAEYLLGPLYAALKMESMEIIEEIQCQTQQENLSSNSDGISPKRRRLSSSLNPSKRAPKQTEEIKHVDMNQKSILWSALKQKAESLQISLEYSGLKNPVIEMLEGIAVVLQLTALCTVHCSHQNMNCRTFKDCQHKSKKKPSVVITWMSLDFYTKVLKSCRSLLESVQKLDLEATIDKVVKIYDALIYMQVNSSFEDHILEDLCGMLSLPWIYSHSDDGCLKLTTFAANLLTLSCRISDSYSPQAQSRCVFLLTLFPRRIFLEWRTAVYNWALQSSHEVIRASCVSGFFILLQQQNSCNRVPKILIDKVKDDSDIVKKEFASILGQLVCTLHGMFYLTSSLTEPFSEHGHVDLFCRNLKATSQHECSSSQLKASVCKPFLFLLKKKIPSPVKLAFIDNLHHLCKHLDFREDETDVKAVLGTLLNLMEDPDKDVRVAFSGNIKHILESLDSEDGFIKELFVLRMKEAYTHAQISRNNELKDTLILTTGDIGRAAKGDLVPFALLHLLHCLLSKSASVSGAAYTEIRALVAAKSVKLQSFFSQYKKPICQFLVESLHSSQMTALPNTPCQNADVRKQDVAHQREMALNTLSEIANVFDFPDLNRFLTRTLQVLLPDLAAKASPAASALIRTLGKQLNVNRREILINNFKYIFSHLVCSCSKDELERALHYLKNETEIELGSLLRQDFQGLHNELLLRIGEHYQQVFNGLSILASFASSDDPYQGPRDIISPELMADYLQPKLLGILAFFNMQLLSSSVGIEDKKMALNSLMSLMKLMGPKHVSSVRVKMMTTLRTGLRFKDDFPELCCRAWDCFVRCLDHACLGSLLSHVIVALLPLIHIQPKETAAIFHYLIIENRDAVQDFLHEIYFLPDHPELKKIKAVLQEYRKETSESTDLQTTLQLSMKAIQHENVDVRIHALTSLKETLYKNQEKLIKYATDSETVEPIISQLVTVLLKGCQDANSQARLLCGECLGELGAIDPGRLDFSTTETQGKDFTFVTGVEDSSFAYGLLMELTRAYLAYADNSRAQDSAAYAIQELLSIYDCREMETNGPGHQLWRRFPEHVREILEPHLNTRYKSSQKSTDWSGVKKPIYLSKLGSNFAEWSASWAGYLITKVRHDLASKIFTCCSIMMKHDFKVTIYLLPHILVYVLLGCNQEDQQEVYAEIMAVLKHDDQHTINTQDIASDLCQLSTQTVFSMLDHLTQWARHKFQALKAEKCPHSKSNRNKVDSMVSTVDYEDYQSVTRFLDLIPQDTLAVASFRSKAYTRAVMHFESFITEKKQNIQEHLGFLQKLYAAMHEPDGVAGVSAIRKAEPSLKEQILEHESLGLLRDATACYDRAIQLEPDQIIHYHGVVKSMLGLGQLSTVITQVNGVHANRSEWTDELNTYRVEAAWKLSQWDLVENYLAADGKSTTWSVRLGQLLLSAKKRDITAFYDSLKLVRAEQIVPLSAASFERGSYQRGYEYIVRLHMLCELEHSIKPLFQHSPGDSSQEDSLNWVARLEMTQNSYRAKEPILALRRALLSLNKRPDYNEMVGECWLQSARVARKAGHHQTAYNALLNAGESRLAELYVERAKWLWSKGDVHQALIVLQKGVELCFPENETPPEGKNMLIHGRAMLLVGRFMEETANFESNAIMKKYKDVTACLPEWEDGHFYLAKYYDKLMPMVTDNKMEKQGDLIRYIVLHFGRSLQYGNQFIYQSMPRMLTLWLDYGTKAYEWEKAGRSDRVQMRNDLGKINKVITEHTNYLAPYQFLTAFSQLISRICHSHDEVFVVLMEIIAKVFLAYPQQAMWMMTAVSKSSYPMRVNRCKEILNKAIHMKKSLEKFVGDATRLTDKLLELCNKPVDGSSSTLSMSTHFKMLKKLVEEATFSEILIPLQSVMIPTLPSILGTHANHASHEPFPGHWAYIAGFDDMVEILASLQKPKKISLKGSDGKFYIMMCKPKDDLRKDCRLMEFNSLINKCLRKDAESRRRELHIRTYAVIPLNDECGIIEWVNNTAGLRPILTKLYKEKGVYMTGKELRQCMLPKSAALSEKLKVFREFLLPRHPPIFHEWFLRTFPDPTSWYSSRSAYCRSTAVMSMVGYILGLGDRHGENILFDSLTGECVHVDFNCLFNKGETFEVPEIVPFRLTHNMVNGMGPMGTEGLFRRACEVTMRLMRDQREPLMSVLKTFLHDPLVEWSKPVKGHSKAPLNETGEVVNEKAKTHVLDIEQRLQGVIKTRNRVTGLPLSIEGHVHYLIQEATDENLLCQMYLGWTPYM

in vitro [4] = conditions: human, liver microsomes
in vitro [5] = conditions: rat, liver microsomes
[6] = target: Serine/threonine-protein kinase mTOR (Homo sapiens, UniProt P42345); test: Inhibition of mTOR (unknown origin) using peptide as substrate preincubated for 10 mins followed by substrate addition by microplate reader analysis
LoVo [7] = test: Antiproliferative activity against ATM-deficient human LoVo cells assessed as reduction in cell proliferation incubated for 3 days by MTT assay; format: functional, cell-based; conditions: 72 h
[8] = target: T1, Serine/threonine-protein kinase ATR; test: Inhibition of ATR (unknown origin) using peptide as substrate preincubated for 10 mins followed by substrate addition by microplate reader analysis
Target sequence in this assay (Q13535 whole entry): as the sequence (Q13535 whole entry, looked up) above

in vitro [9] = conditions: human, liver microsomes; remark: listed apart in the source
HT-29 [10] = test: Antiproliferative activity against ATM-proficient human HT-29 cells assessed as reduction in cell proliferation incubated for 3 days by MTT assay; format: functional, cell-based; conditions: HT-29, 72 h
in vitro [11] = conditions: human, liver microsomes; remark: listed apart in the source
in vitro [12] = conditions: rat, liver microsomes; remark: listed apart in the source
in vitro [13] = conditions: rat, liver microsomes; remark: listed apart in the source
[14] = MRT (0 to infinity) in Sprague-Dawley rat at 1 mg/kg, iv and measured upto 24 hrs by LC-MS analysis; format: ADME, organism-based; conditions: in vivo
[15] = Tmax in Sprague-Dawley rat at 5 mg/kg, po and measured upto 24 hrs by LC-MS analysis; format: ADME, organism-based; conditions: in vivo
[16] = Cmax in Sprague-Dawley rat at 5 mg/kg, po and measured upto 24 hrs by LC-MS analysis; format: ADME, organism-based; design: time < 24 hrs, dose 5 mg/kg, route po; conditions: in vivo
[17] = Half life in Sprague-Dawley rat at 1 mg/kg, iv and measured upto 24 hrs by LC-MS analysis; format: ADME, organism-based; conditions: in vivo
[18] = AUC(0 to infinity) in Sprague-Dawley rat at 1 mg/kg, iv and measured upto 24 hrs by LC-MS analysis; format: ADME, organism-based; design: time < 24 hrs, dose 1 mg/kg, route iv; conditions: in vivo
[19] = Volume of distribution at steady state in Sprague-Dawley rat at 1 mg/kg, iv and measured upto 24 hrs by LC-MS analysis; format: ADME, organism-based; conditions: in vivo, read-out: Vdss
[20] = MRT(t) in Sprague-Dawley rat at 1 mg/kg, iv and measured upto 24 hrs by LC-MS analysis; format: ADME, organism-based; conditions: in vivo
[21] = Clearance in Sprague-Dawley rat at 1 mg/kg, iv and measured upto 24 hrs by LC-MS analysis; format: ADME, organism-based; conditions: in vivo
[22] = MRT(t) in Sprague-Dawley rat at 5 mg/kg, po and measured upto 24 hrs by LC-MS analysis; format: ADME, organism-based; conditions: in vivo
[23] = AUCt in Sprague-Dawley rat at 5 mg/kg, po and measured upto 24 hrs by LC-MS analysis; format: ADME, organism-based; design: time < 24 hrs, dose 5 mg/kg, route po; conditions: in vivo
[24] = MRT (0 to infinity) in Sprague-Dawley rat at 5 mg/kg, po and measured upto 24 hrs by LC-MS analysis; format: ADME, organism-based; conditions: in vivo
[25] = Half life in Sprague-Dawley rat at 5 mg/kg, po and measured upto 24 hrs by LC-MS analysis; format: ADME, organism-based; conditions: in vivo
[26] = AUCt in Sprague-Dawley rat at 1 mg/kg, iv and measured upto 24 hrs by LC-MS analysis; format: ADME, organism-based; design: dose 1 mg/kg, time < 24 hrs, route iv; conditions: in vivo
HT-29 [27] = test: Antiproliferative activity against ATM-proficient human HT-29 cells assessed as reduction in cell proliferation at 0.5 to 22 uM incubated for 3 days by MTT assay; format: functional, cell-based; conditions: dose 0.5-22 µM, time 3.0 day
[28] = Oral bioavailability in Sprague-Dawley rat at 5 mg/kg and measured upto 24 hrs by LC-MS analysis; format: ADME, organism-based; conditions: in vivo
LoVo [29] = test: Antiproliferative activity against ATM-deficient human LoVo cells assessed as reduction in cell proliferation at 0.1 to 25 uM incubated for 3 days by MTT assay; format: functional, cell-based; conditions: dose 0.1-25 µM, time 3.0 day
[30] = AUC (0 to infinity) in Sprague-Dawley rat at 5 mg/kg, po and measured upto 24 hrs by LC-MS analysis; format: ADME, organism-based; design: time < 24 hrs, dose 5 mg/kg, route po; conditions: in vivo
SW-620 = test: Antiproliferative activity against ATM-deficient human SW620 cells assessed as reduction in cell viability incubated for 3 days by MTT assay; format: functional, cell-based; conditions: SW-620, 72 h
HT-29 [31] = test: Antiproliferative activity against ATM-proficient human HT-29 cells assessed as reduction in cell viability incubated for 3 days in presence of AZD-1390 by MTT assay; format: functional, cell-based; conditions: HT-29, 72 h
A549 [32] = test: Synergistic antiproliferative activity against ATM-proficient human A549 cells assessed as reduction in cell viability incubated for 3 days in presence of cisplatin by MTT assay; format: functional, cell-based; conditions: A549, 72 h
OVCAR-3 = test: Antiproliferative activity against ATM-deficient human OVCAR-3 cells assessed as reduction in cell viability incubated for 3 days by MTT assay; format: functional, cell-based; conditions: OVCAR-3, 72 h
A549 [33] = test: Synergistic antiproliferative activity against ATM-proficient human A549 cells assessed as reduction in cell viability incubated for 3 days in presence of oxaliplatin by MTT assay; format: functional, cell-based; conditions: A549, 72 h
HCT-116 [34] = test: Synergistic antiproliferative activity against ATM-proficient human HCT-116 cells assessed as reduction in cell viability incubated for 3 days in presence of cisplatin by MTT assay; format: functional, cell-based; conditions: HCT-116, 72 h
A549 [35] = test: Antiproliferative activity against ATM-proficient human A549 cells assessed as reduction in cell viability incubated for 3 days in presence of AZD-1390 by MTT assay; format: functional, cell-based; conditions: A549, 72 h
HCT-116 [36] = test: Antiproliferative activity against ATM-proficient human HCT-116 cells assessed as reduction in cell viability incubated for 3 days by MTT assay; format: functional, cell-based; conditions: HCT-116, 72 h
A549 [37] = test: Antiproliferative activity against ATM-proficient human A549 cells assessed as reduction in cell viability incubated for 3 days by MTT assay; format: functional, cell-based; conditions: A549, 72 h
MCF7 [38] = test: Synergistic antiproliferative activity against human MCF7 cells assessed as reduction in cell viability incubated for 3 days in presence of olaparib by MTT assay; format: functional, cell-based; conditions: MCF7, 72 h
HCT-116 [39] = test: Synergistic antiproliferative activity against ATM-proficient human HCT-116 cells assessed as reduction in cell viability incubated for 3 days in presence of oxaliplatin by MTT assay; format: functional, cell-based; conditions: HCT-116, 72 h
MDA-MB-231 [40] = test: Synergistic antiproliferative activity against human MDA-MB-231 cells assessed as reduction in cell viability incubated for 3 days in presence of olaparib by MTT assay; format: functional, cell-based; conditions: MDA-MB-231, 72 h
HCT-116 [41] = test: Antiproliferative activity against ATM-proficient human HCT-116 cells assessed as reduction in cell viability incubated for 3 days in presence of AZD-1390 by MTT assay; format: functional, cell-based; conditions: HCT-116, 72 h

Structure (SMILES): O=C(c1cc(Cc2n[nH]c(=O)c3ccccc23)ccc1F)N1CCN(C(=O)C2CC2)CC1 [OLAPARIB]
IC50 (MCF7 [1]): 18600 nM
IC50 (MDA-MB-231 [2]): 73300 nM

Structure (SMILES): C[C@@H]1COCCN1c1cc(C2(S(C)(=O)=O)CC2)nc(-c2cccc3[nH]ccc23)n1
IC50 (SW-620): 727 nM
IC50 (HT-29 [31]): 72 nM
IC50 (A549 [32]): 481 nM
IC50 (OVCAR-3): 563 nM
IC50 (A549 [33]): 333 nM
IC50 (HCT-116 [34]): 137 nM
IC50 (MCF7 [1]): 2310 nM
IC50 (A549 [35]): 495 nM
IC50 (HCT-116 [36]): 260 nM
IC50 (MDA-MB-231 [2]): 2970 nM
IC50 (LoVo [7]): 231 nM
IC50 (A549 [37]): 734 nM
IC50 (MCF7 [38]): 1220 nM
IC50 (HCT-116 [39]): 92 nM
IC50 (HT-29 [10]): 644 nM
IC50 (MDA-MB-231 [40]): 254 nM
IC50 (HCT-116 [41]): 151 nM

Further lines, with some results ahead:

inhibition [3]: 70.7%
Structure (SMILES): C[C@@H]1COCCN1c1nc(-c2cccc3[nH]ccc23)nc2c1CCNC2(C)C

inhibition [3]: 89.9%
half-life at 1 h, 1 µM (in vitro [4]): 0.188 h
CLint scaled at 1 h, 1 µM (in vitro [5]): 110 mL/min/kg
IC50 [6]: 13 nM
IC50 (LoVo [7]): 1260 nM
IC50 [8]: 13 nM
microsomal CLint at 1 h, 1 µM (in vitro [9]): 123 µL/min/mg
IC50 (HT-29 [10]): 4610 nM
CLint scaled at 1 h, 1 µM (in vitro [11]): 116 mL/min/kg
half-life at 1 h, 1 µM (in vitro [12]): 0.378 h
microsomal CLint at 1 h, 1 µM (in vitro [13]): 61.4 µL/min/mg
Structure (SMILES): CC(=O)N1CCc2c(N3CCOC[C@H]3C)nc(-c3cccc4[nH]ccc34)nc2C1(C)C

MRT inf [14]: 6.99 h
Tmax [15]: 2 h
half-life at 1 h, 1 µM (in vitro [4]): 0.428 h
Cmax [16]: 24.1 ng/mL
half-life [17]: 5.49 h
AUC(0-inf) [18]: 646 ng·h/mL
CLint scaled at 1 h, 1 µM (in vitro [5]): 12.7 mL/min/kg
Vd [19]: 10.8 L/kg
MRT last at 24 h [20]: 5.21 h
clearance [21]: 26 mL/min/kg
MRT last at 24 h [22]: 5.56 h
IC50 (LoVo [7]): 92 nM
IC50 [8]: 4 nM
AUC(0-t) at 24 h [23]: 185 ng·h/mL
microsomal CLint at 1 h, 1 µM (in vitro [9]): 53.9 µL/min/mg
MRT inf [24]: 7.1 h
half-life [25]: 4.38 h
AUC(0-t) at 24 h [26]: 603 ng·h/mL
IC50 (HT-29 [10]): 449 nM
bioavailability [28]: 6.1%
CLint scaled at 1 h, 1 µM (in vitro [11]): 50.9 mL/min/kg
AUC(0-inf) [30]: 203 ng·h/mL
half-life at 1 h, 1 µM (in vitro [12]): 3.28 h
microsomal CLint at 1 h, 1 µM (in vitro [13]): 7.06 µL/min/mg
Structure (SMILES): C[C@@H]1COCCN1c1nc(-c2cccc3[nH]ccc23)nc2c1CN(C(=O)c1ccc(S(C)(=O)=O)cc1)C2(C)C
Activity (HT-29 [27]): Dose-Dependent Effect
Activity (LoVo [29]): Dose-Dependent Effect
